Assay results taken from ChEMBL document CHEMBL1909046, “DrugMatrix in vitro pharmacology data”.

Legend:
[1] = target: T1, Calcitonin receptor (Homo sapiens, UniProt P30988); assay type: cell membranes, Membrane; details: t47d
T1 sequence (P30988 whole entry): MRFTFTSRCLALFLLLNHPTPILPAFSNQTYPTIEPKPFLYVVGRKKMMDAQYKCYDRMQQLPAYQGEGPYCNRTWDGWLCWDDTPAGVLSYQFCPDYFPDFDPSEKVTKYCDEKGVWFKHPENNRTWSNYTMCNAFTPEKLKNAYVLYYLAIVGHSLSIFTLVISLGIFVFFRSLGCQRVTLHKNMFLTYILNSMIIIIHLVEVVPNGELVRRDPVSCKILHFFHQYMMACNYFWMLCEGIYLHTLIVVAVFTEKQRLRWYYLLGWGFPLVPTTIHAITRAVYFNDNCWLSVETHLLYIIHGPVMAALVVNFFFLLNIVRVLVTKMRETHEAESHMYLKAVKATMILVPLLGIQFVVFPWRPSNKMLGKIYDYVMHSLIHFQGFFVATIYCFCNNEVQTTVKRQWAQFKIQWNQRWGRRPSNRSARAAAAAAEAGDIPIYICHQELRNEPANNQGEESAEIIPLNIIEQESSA

[2] = target: Vascular endothelial growth factor receptor 1 (Homo sapiens, UniProt P17948); assay type: cell-based; details: huvec
[3] = target: T2, Muscarinic acetylcholine receptor M4 (Homo sapiens, UniProt P08173); assay type: cell membranes, CHO-K1, Membrane
T2 sequence (P08173 whole entry): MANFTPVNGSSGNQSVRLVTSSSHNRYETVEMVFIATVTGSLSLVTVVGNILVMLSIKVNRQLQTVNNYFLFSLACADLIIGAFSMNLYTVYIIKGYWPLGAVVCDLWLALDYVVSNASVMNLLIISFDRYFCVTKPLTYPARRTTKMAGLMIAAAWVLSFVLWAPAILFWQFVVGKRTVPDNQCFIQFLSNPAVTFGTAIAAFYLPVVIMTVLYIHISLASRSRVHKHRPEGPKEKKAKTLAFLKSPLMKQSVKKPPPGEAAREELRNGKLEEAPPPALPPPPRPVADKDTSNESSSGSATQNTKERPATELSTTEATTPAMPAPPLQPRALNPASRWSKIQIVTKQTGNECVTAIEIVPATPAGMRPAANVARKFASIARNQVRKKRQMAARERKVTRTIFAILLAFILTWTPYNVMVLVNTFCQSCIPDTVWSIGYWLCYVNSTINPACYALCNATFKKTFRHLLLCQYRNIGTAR

[4] = target: T3, Receptor-type tyrosine-protein phosphatase C (Homo sapiens, UniProt P08575); parameters: species or system Escherichia coli;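 also: inhibition of CD45 enzyme activity measured using DiFMUP as substrate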
T3 sequence (P08575 whole entry): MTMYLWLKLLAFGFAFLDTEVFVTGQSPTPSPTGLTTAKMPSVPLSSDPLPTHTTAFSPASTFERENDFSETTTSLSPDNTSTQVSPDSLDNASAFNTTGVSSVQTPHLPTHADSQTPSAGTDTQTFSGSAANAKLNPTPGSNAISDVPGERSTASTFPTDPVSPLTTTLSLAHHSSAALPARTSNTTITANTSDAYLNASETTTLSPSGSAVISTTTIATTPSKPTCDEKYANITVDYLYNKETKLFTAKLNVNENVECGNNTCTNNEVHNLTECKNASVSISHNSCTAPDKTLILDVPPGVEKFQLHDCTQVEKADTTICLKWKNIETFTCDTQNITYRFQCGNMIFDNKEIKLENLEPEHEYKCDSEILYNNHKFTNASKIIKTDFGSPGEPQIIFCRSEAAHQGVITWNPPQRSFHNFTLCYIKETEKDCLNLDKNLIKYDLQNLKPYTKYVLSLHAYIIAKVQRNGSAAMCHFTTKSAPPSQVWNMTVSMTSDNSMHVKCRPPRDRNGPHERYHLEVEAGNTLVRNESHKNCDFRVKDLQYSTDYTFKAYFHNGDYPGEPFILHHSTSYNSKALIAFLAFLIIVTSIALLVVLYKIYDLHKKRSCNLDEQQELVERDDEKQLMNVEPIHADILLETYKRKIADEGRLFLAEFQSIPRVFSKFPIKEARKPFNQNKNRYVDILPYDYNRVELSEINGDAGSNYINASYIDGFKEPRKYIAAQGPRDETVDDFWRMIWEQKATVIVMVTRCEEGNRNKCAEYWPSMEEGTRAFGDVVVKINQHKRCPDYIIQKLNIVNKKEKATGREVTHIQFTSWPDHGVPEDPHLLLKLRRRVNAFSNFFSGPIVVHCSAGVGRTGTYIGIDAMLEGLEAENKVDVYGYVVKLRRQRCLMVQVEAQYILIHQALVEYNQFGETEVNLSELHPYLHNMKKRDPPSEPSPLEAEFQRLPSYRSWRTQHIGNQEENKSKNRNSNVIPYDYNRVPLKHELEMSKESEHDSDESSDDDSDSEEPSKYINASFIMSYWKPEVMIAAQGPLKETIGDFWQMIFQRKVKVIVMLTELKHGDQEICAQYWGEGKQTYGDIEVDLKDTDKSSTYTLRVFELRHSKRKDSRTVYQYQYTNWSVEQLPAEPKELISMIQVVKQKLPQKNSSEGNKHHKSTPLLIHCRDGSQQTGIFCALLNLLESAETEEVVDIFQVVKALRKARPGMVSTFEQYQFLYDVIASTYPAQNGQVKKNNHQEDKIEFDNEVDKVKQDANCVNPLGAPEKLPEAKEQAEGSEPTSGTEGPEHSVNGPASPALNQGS

[5] = target: T4, Adenosine receptor A1 (Homo sapiens, UniProt P30542); assay type: cell membranes, CHO, Membrane; details: cho;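 also: radioligand binding assay at the adenosine A1 receptor, with DPCPX serving as the labelled ligand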
T4 sequence (P30542 whole entry): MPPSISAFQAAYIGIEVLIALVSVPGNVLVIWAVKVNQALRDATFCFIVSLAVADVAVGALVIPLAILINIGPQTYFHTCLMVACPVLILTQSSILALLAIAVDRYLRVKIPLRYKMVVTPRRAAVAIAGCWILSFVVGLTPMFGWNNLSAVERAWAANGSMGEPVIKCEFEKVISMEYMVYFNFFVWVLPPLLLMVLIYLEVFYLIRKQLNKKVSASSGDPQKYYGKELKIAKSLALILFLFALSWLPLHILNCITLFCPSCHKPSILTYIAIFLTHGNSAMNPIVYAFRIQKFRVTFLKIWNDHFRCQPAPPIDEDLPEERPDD
Also: in other assays of this panel Not Active means under 50% inhibition at 10 µM.

Sequence of Vascular endothelial growth factor receptor 1 (P17948 whole entry): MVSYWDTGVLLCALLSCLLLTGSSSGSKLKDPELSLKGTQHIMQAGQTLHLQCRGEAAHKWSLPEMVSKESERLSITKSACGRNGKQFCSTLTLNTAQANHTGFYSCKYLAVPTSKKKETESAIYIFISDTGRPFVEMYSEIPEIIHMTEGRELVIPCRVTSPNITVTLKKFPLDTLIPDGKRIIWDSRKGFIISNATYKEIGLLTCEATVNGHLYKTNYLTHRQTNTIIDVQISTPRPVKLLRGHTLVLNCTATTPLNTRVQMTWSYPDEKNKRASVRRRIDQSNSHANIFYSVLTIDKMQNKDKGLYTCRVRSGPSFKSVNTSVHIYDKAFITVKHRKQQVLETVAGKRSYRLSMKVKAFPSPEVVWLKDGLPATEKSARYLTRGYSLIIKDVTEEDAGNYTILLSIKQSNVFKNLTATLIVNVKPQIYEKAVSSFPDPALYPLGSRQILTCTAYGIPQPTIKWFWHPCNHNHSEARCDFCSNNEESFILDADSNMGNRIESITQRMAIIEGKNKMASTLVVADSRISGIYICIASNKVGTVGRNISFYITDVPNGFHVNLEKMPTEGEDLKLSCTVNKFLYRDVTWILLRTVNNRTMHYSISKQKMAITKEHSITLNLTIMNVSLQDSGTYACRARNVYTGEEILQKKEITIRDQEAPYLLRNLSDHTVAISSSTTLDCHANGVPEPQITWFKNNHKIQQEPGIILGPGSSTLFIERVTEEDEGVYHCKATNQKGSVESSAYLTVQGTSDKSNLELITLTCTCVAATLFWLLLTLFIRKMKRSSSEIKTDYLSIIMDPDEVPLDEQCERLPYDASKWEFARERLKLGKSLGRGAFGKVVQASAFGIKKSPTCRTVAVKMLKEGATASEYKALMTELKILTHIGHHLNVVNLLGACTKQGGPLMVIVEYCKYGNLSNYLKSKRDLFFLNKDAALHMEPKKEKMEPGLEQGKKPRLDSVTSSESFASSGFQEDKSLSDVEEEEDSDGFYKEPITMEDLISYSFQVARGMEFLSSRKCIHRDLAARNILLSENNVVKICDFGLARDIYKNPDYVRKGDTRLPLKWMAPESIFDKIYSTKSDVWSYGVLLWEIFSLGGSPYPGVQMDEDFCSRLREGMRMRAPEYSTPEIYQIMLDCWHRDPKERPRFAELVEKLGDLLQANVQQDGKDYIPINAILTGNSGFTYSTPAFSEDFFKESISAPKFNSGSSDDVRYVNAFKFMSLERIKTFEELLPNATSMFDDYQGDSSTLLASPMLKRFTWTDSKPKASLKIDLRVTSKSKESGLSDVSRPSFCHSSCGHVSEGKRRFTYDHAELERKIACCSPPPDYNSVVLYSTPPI

Compound | IC50 [1] | IC50 [2] | IC50 ([3]; cho-k1) | IC50 [4] | IC50 [5] | IC50 ([3]; read-out: IC50) | Ki ([3]; read-out: Ki) | Ki [1] | Ki [2] | Ki ([3]; cho-k1) | Ki [4] | Ki [5]
OC(Cn1cncn1)(Cn1cncn1)c1ccc(F)cc1F [FLUCONAZOLE] | Not Active | Not Active | Not Active | Not Active | Not Active |  |  |  |  |  |  | 
CC(C)C(=O)Nc1ccc([N+](=O)[O-])c(C(F)(F)F)c1 [FLUTAMIDE] | Not Active | Not Active | Not Active | Not Active | Not Active |  |  |  |  |  |  | 
N=C(N)NCCN1CCCCCCC1 [GUANETHIDINE] | Not Active | Not Active | Not Active | Not Active | Not Active |  |  |  |  |  |  | 
CC1(C)O[C@@H]2C[C@H]3[C@@H]4CCC5=CC(=O)CC[C@]5(C)[C@@]4(F)[C@@H](O)C[C@]3(C)[C@]2(C(=O)CCl)O1 [HALCINONIDE] | Not Active | Not Active | Not Active | Not Active | Not Active |  |  |  |  |  |  | 
O=c1[nH]c(=O)n([C@H]2C[C@H](O)[C@@H](CO)O2)cc1I [IDOXURIDINE] | Not Active | Not Active | Not Active | Not Active | Not Active |  |  |  |  |  |  | 
CC1Cc2ccccc2N1NC(=O)c1ccc(Cl)c(S(N)(=O)=O)c1 (configuration not stated) [INDAPAMIDE] | Not Active | Not Active | Not Active | Not Active | Not Active |  |  |  |  |  |  | 
Nc1nc(N)nc(-c2cc(Cl)ccc2Cl)n1.O=C(O)/C=C\C(=O)O [IRSOGLADINE MALEATE] | Not Active | Not Active | Not Active | Not Active | Not Active |  |  |  |  |  |  | 
CCC(C)n1ncn(-c2ccc(N3CCN(c4ccc(OCC5COC(Cn6cncn6)(c6ccc(Cl)cc6Cl)O5)cc4)CC3)cc2)c1=O (configuration not stated) [ITRACONAZOLE] | Not Active | Not Active | Not Active | Not Active | Not Active |  |  |  |  |  |  | 
CCCCN1CCCC[C@H]1C(=O)Nc1c(C)cccc1C [LEVOBUPIVACAINE] | Not Active | Not Active | Not Active | Not Active | Not Active |  |  |  |  |  |  | 
CCCCc1nc(Cl)c(CO)n1Cc1ccc(-c2ccccc2-c2nnn[nH]2)cc1 [LOSARTAN] | Not Active | Not Active | Not Active | Not Active | Not Active |  |  |  |  |  |  | 
Sc1ncnc2nc[nH]c12 [MERCAPTOPURINE ANHYDROUS] | Not Active | Not Active | Not Active | Not Active | Not Active |  |  |  |  |  |  | 
C[C@](N)(Cc1ccc(O)c(O)c1)C(=O)O [METHYLDOPA] | Not Active | Not Active | Not Active | Not Active | Not Active |  |  |  |  |  |  | 
C[C@]12CCC(=O)C=C1CC[C@@H]1[C@@H]2CC[C@@]2(C)[C@H]1CC[C@]2(C)O [METHYLTESTOSTERONE] | Not Active | Not Active | Not Active | Not Active | Not Active |  |  |  |  |  |  | 
Cc1ccccc1N1C(=O)c2cc(S(N)(=O)=O)c(Cl)cc2NC1C (configuration not stated) [METOLAZONE] | Not Active | Not Active | Not Active | Not Active | Not Active |  |  |  |  |  |  | 
COCCc1ccc(OCC(O)CNC(C)C)cc1 (configuration not stated) [METOPROLOL] | Not Active | Not Active | Not Active | Not Active | Not Active |  |  |  |  |  |  | 
CCn1cc(C(=O)O)c(=O)c2cc(F)c(N3CCNCC3)cc21 [NORFLOXACIN] | Not Active | Not Active | Not Active | Not Active | Not Active |  |  |  |  |  |  | 
NC1=NC(=O)C(c2ccccc2)O1 (configuration not stated) [PEMOLINE] | Not Active | Not Active | Not Active | Not Active | Not Active |  |  |  |  |  |  | 
Nc1nc2c(ncn2CCC(CO)CO)c(=O)[nH]1 [PENCICLOVIR] | Not Active | Not Active | Not Active | Not Active | Not Active |  |  |  |  |  |  | 
C=C(C)C1(O)OC(=O)C=C1OC (configuration not stated) [PENICILLIC ACID] | Not Active | Not Active | Not Active | Not Active | Not Active |  |  |  |  |  |  | 
CC1(C)S[C@@H]2[C@H](NC(=O)Cc3ccccc3)C(=O)N2[C@H]1C(=O)O [PENICILLIN G] | Not Active | Not Active | Not Active | Not Active | Not Active |  |  |  |  |  |  | 
CCCN1C[C@H](CSC)C[C@@H]2c3cccc4[nH]cc(c34)C[C@H]21 [PERGOLIDE] | Not Active | Not Active | Not Active | Not Active | Not Active |  |  |  |  |  |  | 
C1CCC(C(CC2CCCCN2)C2CCCCC2)CC1 (configuration not stated) [PERHEXILINE] | Not Active | Not Active |  | Not Active | Not Active | 3.59 µM | 0.501 µM |  |  |  |  | 
CCOc1ccc(NC(C)=O)cc1 [PHENACETIN] | Not Active | Not Active | Not Active | Not Active | Not Active |  |  |  |  |  |  | 
Cc1ccc(N(CC2=NCCN2)c2cccc(O)c2)cc1 [PHENTOLAMINE] | Not Active | Not Active | Not Active | Not Active | Not Active |  |  |  |  |  |  | 
CNNCc1ccc(C(=O)NC(C)C)cc1 [PROCARBAZINE] | Not Active | Not Active | Not Active | Not Active | Not Active |  |  |  |  |  |  | 
CN(C)CCCN1c2ccccc2Sc2ccccc21 [PROMAZINE] | Not Active | Not Active |  | Not Active | Not Active | 0.299 µM | 0.042 µM |  |  |  |  | 
CC(O)CO (configuration not stated) [PROPYLENE GLYCOL] | Not Active | Not Active | Not Active | Not Active | Not Active |  |  |  |  |  |  | 
CADMIUM ACETATE | Not Active | Not Active | Not Active | Not Active | Not Active |  |  | Not Active | Not Active | Not Active | Not Active | Not Active
